Our source for the Ka values is ChEMBL document CHEMBL1132502, “Synthesis of a fluorescent microgonotropen (FMGT-1) and its interactions with the dodecamer d(CCGGAATTCCGG)” (Bioorg Med Chem Lett, 1999).

The test system of this experiment is Nucleic Acid. The experiment in a line: Association constant (Ka) with DNA dodecamer d(CCGGAATTCCGG) was determined. It is filed as nucleic-acid assay.

`CN1CCN(c2ccc3[nH]c(-c4ccc5[nH]c(-c6ccc(O)cc6)nc5c4)nc3c2)CC1` displayed a Ka of 1.3 M⁻¹.
